Measurements reported in US7767712B2, “Storage-stable aqueous composition comprising a magnesium compound and L-carnitine” (Verla-Pharm Arzneimittelfabrik Apotheker H.J.v. Ehrlich …, priority 2006, dated 2010).

Assay: Solubility of L-carnitine at 20° C.
Assay type: physicochemical
Details: in 100 g of solution
Source text: This applies, furthermore, without taking into account the amount of water which is required for dissolving magnesium aspartate hydrochloride.

Compound: C[N+](C)(C)CC(O)CC(=O)[O-] [L-carnitine, 3-hydroxy-4-(trimethylammonio)butyro-betaine]
- amount of L-carnitine that can be dissolved in 100 g of an aqueous solution which contains 51% by weight magnesium aspartate hydrochloride: up to 150 g
